Experimental data from patent US10329315B2, “Glycosphingolipids and methods of use thereof” (The Brigham and Women's Hospital, Inc., priority 2012, dated 2019).

Tested on: iNKT hybridoma 24.7
Assay: iNKT cell activation in co-culture of BMDCs and iNKT hybridoma 24.7, IL-2 by ELISA
Type: cell-based
Settings: incubated with BMDCs 4 hours, then iNKT hybridoma 24.7 for 24 hours
Procedure: Experiments were performed to determine whether fractions of B. fragilis sphingolipids are immunostimulatory (agonists) to iNKT cells. Lipid fractions were extracted from BF membranes, incubated with bone marrow dendritic cells (BMDCs) for 4 hours, and then co-incubated with iNKT hybridoma 24.7 for 24 hours. IL-2 was measured by ELISA as a readout of iNKT cell activation. KRN7000 refers to the known immunostimulatory alpha-GC. Cer-SL refers to the ceramide sphingolipid fraction. PE-SL refers to the phosphoethanolamine sphingolipid fraction. GL-SL refers to the glycosphingolipid fraction. C17 minor refers to alpha-GC having a C17 ceramide chain length. […] As expected, KRN7000 was stimulatory.
Further studies confirmed that alpha-GC-Bf717 was detectable only in fecal samples from BFWT mice and not in samples from BFΔSPT mice. The estimated yield of alpha-GC-Bf717 was about 1 ng per gram of fecal pellet. To confirm that alpha-GC-Bf717 had antagonistic activity, co-cultures similar to those described above for bulk GL-SL fractions were performed.

CCCCCCCCCCCCCCCCCCCCCCCCCC(=O)N[C@@H](CO[C@H]1O[C@H](CO)[C@H](O)[C@H](O)[C@H]1O)[C@H](O)[C@H](O)CCCCCCCCCCCCCC [KRN7000]
iNKT cell activation (IL-2): stimulatory
